Assay results from patent US20240254119A1 (THIRD HARMONIC BIO, INC., priority 2022, published 2024).
pIC50: −log10 of the molar value.

What was measured:
[1] = Kinetic solubility assay; format: physicochemical; conditions: kinetic solubility, 50 mM PB (pH 7.4), shaken 24 hours at RT
Protocol: 10 μL of 10 mM in DMSO of test article and control compounds was added into lower chambers of whatman miniuniprep vials, respectively. 490 μL of 50 mM PB (pH 7.4) was then added into lower chambers of the whatman miniuniprep vials, respectively. […] Miniuniprep vials were shaken for 24 hours at RT at the speed of 800 rpm, centrifuged 20 minutes (eg. 4000 rpm) and the filtrates were analyzed by UPLC-UV/HPLC-UV system to calculate the concentration with standard curve.
Filter Membrane: Miniuniprep (PTFE Filter Media with Polypropylene Housing) Cat. No. UN203NPUORG, GE Halthcare Whatman.

[2] = target: T1, BCRP (BCRP-MDCKII monolayer) (Homo sapiens, UniProt Q9UNQ0); test: MDCKII-BCRP bidirectional transport assay; format: in vitro ADME; conditions: for MDCK-BCRP: Papp A-B: apical to basolateral
T1 construct: host or cells: MDCKII (canine kidney) cells
T1 sequence (Q9UNQ0 1-655): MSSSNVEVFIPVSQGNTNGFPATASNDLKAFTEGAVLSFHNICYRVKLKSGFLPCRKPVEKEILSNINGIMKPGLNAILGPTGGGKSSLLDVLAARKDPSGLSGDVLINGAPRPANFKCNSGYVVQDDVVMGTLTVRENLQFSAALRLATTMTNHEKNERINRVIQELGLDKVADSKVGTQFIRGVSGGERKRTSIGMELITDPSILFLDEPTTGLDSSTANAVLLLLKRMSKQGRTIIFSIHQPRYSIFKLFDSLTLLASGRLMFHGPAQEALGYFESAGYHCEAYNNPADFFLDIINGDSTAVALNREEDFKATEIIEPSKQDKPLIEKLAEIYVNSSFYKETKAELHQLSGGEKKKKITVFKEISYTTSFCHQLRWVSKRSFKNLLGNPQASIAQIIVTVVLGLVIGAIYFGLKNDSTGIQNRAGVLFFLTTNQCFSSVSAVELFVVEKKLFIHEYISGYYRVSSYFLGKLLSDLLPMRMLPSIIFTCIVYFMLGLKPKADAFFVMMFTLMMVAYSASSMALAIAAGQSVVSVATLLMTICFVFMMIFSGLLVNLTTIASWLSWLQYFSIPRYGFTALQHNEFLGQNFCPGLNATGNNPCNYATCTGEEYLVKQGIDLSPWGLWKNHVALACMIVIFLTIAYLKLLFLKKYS
Protocol: Exemplary compounds were tested for cell permeability in Caco-2, MDCKII-MDR1 and MDCKII-BCRP cell lines with efflux transporter engagement inferred from the efflux ratios determined. Procedures and results are described below. […] This feature of certain compounds is in part due to efflux transporter engagement. See, for instance, exemplary such compounds included in data tables below.
The reference compound Teriflunomide and test compounds are tested in the bidirectional assay. Test compound and reference compounds incubations were tested in duplicates.
The transport assay can be performed between days 12 to day 15 using ready to use PreadyPort™ BCRP-MDCKII monolayer in 96 well plate.
The medium was aspirated from the apical and basal compartments and 75 and 235 μL assay buffer was added to each of the 96 wells of apical and basal compartments of the PreadyPort™ plate.
The plates were pre-incubated for 15 min at 37° C. with 5% CO2 in humidified atmosphere. After preincubation the assay buffer was removed from the apical and basal inserts of the plate.
In apical to basolateral (A→B) transport, 75 μL of test or reference compound working solution to apical inserts and 235 μL of blank assay buffer were added to the corresponding basal compartments.
In basolateral to apical transport, 235 μL of test or reference compound working solution to the basal compartments and 75 μL of blank assay buffer solution were added to corresponding apical inserts.
The sandwich plate was incubated for 120 min in incubator at 5% CO2 and 37° C.
After incubation, 60 μL was transferred from receiver and donor compartments to collection plate.
For donor and C0 samples 20-fold dilution was accomplished by mixing 60 μL of collected sample with 1140 μL of transport buffer and from that solution aliquot 60 μL transfer Both receiver and donor samples were processed by adding […] of acetonitrile containing internal standard (60 μL of sample+240 μL of acetonitrile containing glyburide as internal standard, 125 ng/mL) and vortexing the samples. The compound concentration was measured in all samples using respective calibration standards by LC-MS/MS.
Calculate the Papp and recovery using the given formula:
[formula] [formula] • Where: dQ/dt=Permeability rate in μM/see • C0=Initial concentration in μM • A=Membrane surface area (0.33 cm^2) • V=Volume of receiver chamber • Cend, a=concentration in acceptor well at end of incubation • Cend, d=concentration in donor well at end of incubation • CHBSS=loading concentration measured in HBSS

[3] = target: T2, wtKIT (Homo sapiens, UniProt P10721); test: Caliper biochemical assay, wtKIT; conditions: Table 6, read-out: KIT Biochemical IC50 avg
T2 construct: 1888289AM in the reaction mixtures
Protocol: Enzyme, substrate, and cofactors (ATP and Mn^2+) are combined in a well of a microtiter plate and incubated for 3 hours at 25° C. At the end of the incubation, the reaction is quenched by the addition of an EDTA-containing buffer. Substrate and product are separated electrophoretically using the microfluidic-based LabChip 3000 Drug Discovery System from Caliper Life Sciences* and quantitated by fluorescence intensity.
The substrate used in the CSF-1R and PDGFRα assay is FAM-[…]-CONH2 (FAM is carboxyfluorescein). Peptide should be >95% purity. The substrate for the KIT assay is FAM-[…]-NH2.
• 1. To a well of a 384-well plate add 5 μL of 2× enzyme buffer (or control) • 2. Add 100 nL of 100× compound. • 3. Add 5 μL of 2× substrate buffer. • 4. Incubate plate at 25° C. for 3 hours. • 5. Add 10 uL of […]. • 6. Read plate LabChip 3000 Drug Discovery System
• 3 hours at 25° C. where 100% Inhibitor: No enzyme.
• 100 mM HEPES, pH 7.5 0.1% BSA • 0.01% Triton X-100 • 1 mM DTT • 10 mM MnCl2 • 10 μM Sodium Orthovanadate • 10 μM Beta-Glycerophosphate • 400 μM ATP • 1% DMSO (from compound) • 1 μM FAM-[…]-CONH2 5.0 nM wtKIT Enzyme (1888289AM)* • *Specific activity may vary from lot to lot. Enzyme concentration may need to be adjusted to yield 10-20% conversion of substrate to product.

[4] = target: T2, wtKIT; test: HTRF biochemical assay, wtKIT (phosphorylation of a peptide substrate); conditions: Table 4
Procedure, shortened: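 HTRF read-out of FAM-peptide (1 µM) phosphorylation after anti-phosphotyrosine antibody addition and EDTA quench. Reaction: 5.0 nM wtKIT, 400 µM ATP, 10 mM Mn2+, HEPES pH 7.5, 1% DMSO, 3 h, 25 °C; optional enzyme-compound preincubation; enzyme level set for 10-20% conversion.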

T2 sequence (P10721 26-976): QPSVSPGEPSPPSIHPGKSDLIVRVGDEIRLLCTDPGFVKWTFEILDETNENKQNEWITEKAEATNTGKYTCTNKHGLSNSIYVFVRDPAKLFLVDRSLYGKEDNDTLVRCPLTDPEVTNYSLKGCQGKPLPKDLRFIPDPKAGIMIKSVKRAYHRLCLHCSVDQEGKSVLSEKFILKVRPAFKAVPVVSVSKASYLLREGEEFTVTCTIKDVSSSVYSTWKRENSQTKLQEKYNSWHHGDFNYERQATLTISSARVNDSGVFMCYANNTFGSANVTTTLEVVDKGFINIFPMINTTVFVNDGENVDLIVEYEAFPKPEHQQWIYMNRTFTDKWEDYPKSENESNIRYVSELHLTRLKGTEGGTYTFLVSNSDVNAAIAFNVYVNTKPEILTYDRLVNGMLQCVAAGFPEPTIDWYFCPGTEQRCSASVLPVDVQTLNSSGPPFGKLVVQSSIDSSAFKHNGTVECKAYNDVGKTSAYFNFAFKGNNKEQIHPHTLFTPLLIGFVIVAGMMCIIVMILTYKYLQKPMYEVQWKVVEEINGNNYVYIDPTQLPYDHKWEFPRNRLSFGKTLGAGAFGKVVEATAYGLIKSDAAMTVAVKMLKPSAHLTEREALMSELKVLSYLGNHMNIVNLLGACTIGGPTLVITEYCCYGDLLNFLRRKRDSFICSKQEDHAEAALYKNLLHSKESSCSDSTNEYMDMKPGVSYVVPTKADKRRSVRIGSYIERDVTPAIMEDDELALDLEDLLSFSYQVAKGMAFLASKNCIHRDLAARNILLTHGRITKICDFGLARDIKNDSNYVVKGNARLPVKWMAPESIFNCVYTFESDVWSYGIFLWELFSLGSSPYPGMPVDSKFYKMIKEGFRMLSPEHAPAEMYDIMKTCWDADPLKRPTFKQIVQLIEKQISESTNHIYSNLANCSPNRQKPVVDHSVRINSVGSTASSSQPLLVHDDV

Compound | Solubility (μM) [1] | MDCK-BCRP: Efflux Ratio [2] | MDCK-BCRP: Papp A-B [2] | pIC50 [3] | pIC50 [4]
Cc1ccc(-c2noc(C3CC(O)(C4(O)CCC4)C3)n2)cc1NC(=O)c1cnc2ccccn12 (stereo not shown) [Compound I-357] | *** (a solubility greater than 2 μM and less than or equal to 10 μM) | 63.9 | 0.47 10^−6 cm/s | 6.30 to 7.30 | 
Cc1ccc(-c2noc(C3CCCCO3)n2)cc1NC(=O)c1cnc2ccccn12 (racemic) [Compound I-397] | *** (a solubility greater than 2 μM and less than or equal to 10 μM) | 2.83 | 8.04 10^−6 cm/s | ≥ 7.30 | 
COC(=O)C1CC(c2nc(-c3ccc(C)c(NC(=O)c4cnc5ccccn45)c3)no2)C1 (stereo not shown) [Compound I-366] | **** (a solubility less than or equal to 2 μM) | 1.31 | 10.2 10^−6 cm/s | ≥ 7.30 | 
Cc1ccc(-c2noc([C@H]3CCN(C(=O)OC(C)(C)C)C3)n2)cc1NC(=O)c1cnc2ccccn12 [Compound I-398] | *** (a solubility greater than 2 μM and less than or equal to 10 μM) | 1.33 | 20.3 10^−6 cm/s | 6.30 to 7.30 | 
Cc1ccc(-c2noc(C3CC4(COCCO4)C3)n2)cc1NC(=O)c1cnc2ccccn12 (stereo not shown) [Compound I-343] | ** (a solubility greater than 10 μM and less than or equal to 50 μM) | 2.36 | 8.04 10^−6 cm/s | ≥ 7.30 | 
COC(=O)C1CC(c2nc(-c3ccc(C)c(NC(=O)c4cnc5ccccn45)c3)no2)C1 (stereo not shown) [Compound I-342] | *** (a solubility greater than 2 μM and less than or equal to 10 μM) | 0.47 | 30 10^−6 cm/s | ≥ 7.30 | 
COC(=O)N1CC(c2nc(-c3ccc(Br)c(NC(=O)c4cnc5ccccn45)c3)no2)C1 [Compound I-338] | **** (a solubility less than or equal to 2 μM) | 0.82 | 23.1 10^−6 cm/s | ≥ 7.30 | 
Cc1ccc(-c2noc(C3(C)CC(F)(F)C3)n2)cc1NC(=O)c1cnc2ccccn12 [Compound I-385] | **** (a solubility less than or equal to 2 μM) | 1.05 | 14.3 10^−6 cm/s | ≥ 7.30 | 
COC(=O)N1CC(c2nc(-c3ccc(C)c(NC(=O)c4cnc5ccc(OCC(C)(C)O)cn45)c3)no2)C1 [Compound I-239] | ** (a solubility greater than 10 μM and less than or equal to 50 μM) |  |  | 6.30 to 7.30 | 6.30 to 7.30
CSCC1(c2nc(-c3ccc(C)c(NC(=O)c4cnc5ccccn45)c3)no2)CC(F)(F)C1 [Compound I-354] | **** (a solubility less than or equal to 2 μM) | 1.03 | 7.97 10^−6 cm/s | ≥ 7.30 | 
Cc1nc(-c2ccc(C)c(NC(=O)c3cnc4ccc(N5CCCCC5)cn34)c2)no1 [Compound I-206] | **** (a solubility less than or equal to 2 μM) |  |  | ≥ 7.30 | ≥ 7.30
Cc1ccc(-c2noc(C3CCN(C(=O)OC(C)(C)C)C3)n2)cc1NC(=O)c1cnc2ccccn12 (racemic) [Compound I-399] | *** (a solubility greater than 2 μM and less than or equal to 10 μM) | 2.78 | 6.48 10^−6 cm/s | 6.30 to 7.30 | 
COC(=O)N1CC(c2nc(-c3ccc(C)c(NC(=O)c4cnc5ccc(OC[C@@H](C)O)cn45)c3)no2)C1 [Compound I-227] | ** (a solubility greater than 10 μM and less than or equal to 50 μM) |  |  | ≥ 7.30 | 6.30 to 7.30
Cc1ccc(-c2noc([C@H]3C[C@@H]3F)n2)cc1NC(=O)c1cnc2cc(NS(=O)(=O)c3c(C)noc3C)ccn12 [Compound I-226] | * (a solubility greater than 50 μM) |  |  | 6.30 to 7.30 | 6.30 to 7.30
Cc1nc(-c2ccc(C)c(NC(=O)c3cnc4ccc(N5CCOCC5)cn34)c2)no1 [Compound I-218] | **** (a solubility less than or equal to 2 μM) |  |  | ≥ 7.30 | ≥ 7.30
CCNc1ccn2c(C(=O)Nc3cc(-c4noc(C)n4)ccc3C)cnc2c1 [Compound I-229] | **** (a solubility less than or equal to 2 μM) |  |  | ≥ 7.30 | ≥ 7.30
Cc1ccc(-c2noc([C@H]3C[C@@H]3F)n2)cc1NC(=O)c1cnc2cc(C(N)=O)ccn12 [Compound I-207] | **** (a solubility less than or equal to 2 μM) |  |  | ≥ 7.30 | ≥ 7.30
